How the values were obtained:
[1] = Measurement of triplet energy level; type: physicochemical; conditions: spin-coated film of about 50 nm from 3 weight % toluene solution; PL spectrum at 77 K, peak of shortest wavelength
Method: Compound 1 was dissolved in toluene to a concentration of 3 weight % to prepare a solution. The same applied to Compounds 3 and C1 to prepare solutions. The solutions were spin-coated at a rotational speed of 1,600 revolutions per minute (rpm) and dried on a hot plate at a temperature of 120° C. for 15 minutes to obtain films (samples) having a thickness (film thickness after dry) of about 50 nanometers (nm). The samples were cooled to a temperature of 77 Kelvins (K) (−196° C.) and photoluminescence (PL) spectrums were obtained. The triplet energy levels (electron volts, eV) were calculated at the peak values of the shortest wavelengths of the PL spectrums.

[2] = Measurement of solubility; type: physicochemical; conditions: methyl benzoate (solvent), room temperature, ultrasonic waves
Method: 50 milligrams (mg) of Compound 1 and 500 mg of methyl benzoate (solvent) were added to a colorless sample bottle, ultrasonic waves were irradiated thereon at room temperature for 5 minutes, and the presence or absence of Compound 1 was visually confirmed. […] When Compound 1 remains, a small amount of a solvent was added thereto, the irradiation of ultrasonic waves was repeated, and an amount of the solvent was measured until Compound 1 was completely dissolved. The solubility was measured from the amount of the solvent finally used. The solubility values of Compounds 3 and C1 were calculated in the same manner.

SMILES	Triplet energy level [1]	Solubility [2]
c1ccc(-c2cccc(-c3cccc(-c4cccc5c4-c4ccccc4C54c5ccccc5-c5c(-c6cccc(-c7cccc(-c8ccccc8)c7)c6)cccc54)c3)c2)cc1 [Compound 1]	2.96 eV	7 weight %
c1ccc(-c2cc(-c3ccccc3)cc(-c3cccc(-c4cccc5c4-c4ccccc4C54c5ccccc5-c5c(-c6cccc(-c7cc(-c8ccccc8)cc(-c8ccccc8)c7)c6)cccc54)c3)c2)cc1 [Compound 3]	2.96 eV	9 weight %
c1ccc(-c2cccc(-c3cccc(-c4ccc5c(c4)C4(c6ccccc6-5)c5ccccc5-c5ccc(-c6cccc(-c7cccc(-c8ccccc8)c7)c6)cc54)c3)c2)cc1 [Compound C1]	2.81 eV	2 weight %
c1ccc(-c2nc(-c3ccccc3)nc(-c3cccc(-c4cccc(-c5cccc6c5-c5ccccc5C65c6ccccc6-c6c(-c7ccccc7)cccc65)c4)c3)n2)cc1 (centres unmarked) [Compound C2]	2.91 eV	<1 weight %
